PubChem BioAssay (NCI)
Values joined by “and” are separate entries in the source; they are usually repeats but may differ in a detail not shown here. Equal entries are not always repeated.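 96-well plates; 48 h exposure; 5 concentrations. Endpoints by linear interpolation between flanking doses. Not reached: highest tested concentration assigned. GI50 = concentration required for 50% inhibition of growth. TGI denotes the concentration required for complete inhibition of growth.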

Tests used:
Experiment in all cases: NCI tumour cell line growth inhibition, 48 h
[1] = system: SN12C renal
[2] = system: NCI-H23 lung
[3] = system: OVCAR-4 ovarian
[4] = system: BT-549 breast
[5] = system: UACC-62 melanoma
[6] = system: CCRF-CEM leukemia
[7] = system: LOX IMVI melanoma
[8] = system: P388 leukemia
[9] = system: OVCAR-5 ovarian
[10] = system: DMS 273 small cell lung
[11] = system: MALME-3M melanoma
[12] = system: 786-0 renal
[13] = system: SNB-19 CNS
[14] = system: NCI/ADR-RES ovarian
[15] = system: OVCAR-3 ovarian
[16] = system: U251 CNS
[17] = system: HCT-116 colon
[18] = system: SK-MEL-5 melanoma
[19] = system: SR leukemia
[20] = system: HCT-15 colon
[21] = system: MDA-MB-231 breast
[22] = system: HOP-18 NSCLC
[23] = system: TK-10 renal
[24] = system: A549 NSCLC
[25] = system: M14 melanoma
[26] = system: SF-295 CNS
[27] = system: HT29 colon
[28] = system: SF-268 CNS
[29] = system: HS 578T breast
[30] = system: SW-620 colon
[31] = system: HOP-62 NSCLC
[32] = system: MDA-MB-435
[33] = system: SK-MEL-2 melanoma
[34] = system: RXF 393 renal
[35] = system: M19-MEL melanoma
[36] = system: DU-145 prostate
[37] = system: SF-539 CNS
[38] = system: KM20L2 colon
[39] = system: HOP-92 NSCLC
[40] = system: COLO 205 colon
[41] = system: ACHN renal
[42] = system: NCI-H226 lung
[43] = system: UACC-257 melanoma
[44] = system: DMS 114 small cell lung
[45] = system: XF 498 CNS
[46] = system: RPMI-8226 leukemia
[47] = system: MOLT-4 leukemia
[48] = system: KM12 colon
[49] = system: IGROV1 ovarian
[50] = system: HCC-2998 colon
[51] = system: MCF7 breast
[52] = system: T-47D breast
[53] = system: OVCAR-8 ovarian
[54] = system: NCI-H522 lung
[55] = system: SK-MEL-28 melanoma
[56] = system: K-562 leukemia
[57] = system: P388/ADR leukemia
[58] = system: SNB-78 CNS
[59] = system: CAKI-1 renal
[60] = system: UO-31 renal
[61] = system: DLD-1 colon
[62] = system: PC-3 prostate
[63] = system: SNB-75 CNS
[64] = system: SK-OV-3 ovarian
[65] = system: NCI-H460 lung
[66] = system: EKVX NSCLC

Question: Which GI50 [1] does the source give for `O=C1C=C2C(=CCOC2O)O1` (stereo not drawn) here?
Answer: 2.59 µM

Question: And the TGI [1]?
Answer: 1.86 µM and 10 µM

Question: And the GI50 [2]?
Answer: 2.73 µM

Question: And the TGI [2]?
Answer: 4.14 µM and 10.6 µM

Question: And the TGI [3]?
Answer: 12.5 µM

Question: What about the GI50 [4] of the same compound?
Answer: 3.28 µM

Question: And the TGI [4]?
Answer: 9.67 µM

Question: And the GI50 [5]?
Answer: 1.55 µM

Question: What about the TGI [5] of the same compound?
Answer: 1.64 µM and 3.2 µM

Question: What about the GI50 [6] of the same compound?
Answer: 1.11 µM

Question: And the TGI [6]?
Answer: 0.709 µM and 6.03 µM

Question: What about the GI50 [7] of the same compound?
Answer: 0.227 µM and 1.57 µM

Question: And the TGI [7]?
Answer: 0.665 µM and 3.33 µM

Question: And the TGI [8]?
Answer: 0.439 µM

Question: What about the GI50 [9] of the same compound?
Answer: 2.97 µM

Question: And the TGI [9]?
Answer: 15.8 µM and 7.74 µM

Question: And the TGI [10]?
Answer: 2.41 µM

Question: And the TGI [11]?
Answer: 2.04 µM

Question: And the GI50 [12]?
Answer: 2.67 µM

Question: What about the TGI [12] of the same compound?
Answer: 7.06 µM

Question: What about the GI50 [13] of the same compound?
Answer: 3.23 µM and 12.8 µM

Question: What about the TGI [13] of the same compound?
Answer: 9.77 µM and 27.8 µM

Question: What about the GI50 [14] of the same compound?
Answer: 2.76 µM

Question: And the TGI [14]?
Answer: 4.35 µM and 12.5 µM

Question: And the GI50 [15]?
Answer: 1.7 µM and 0.664 µM

Question: What about the TGI [15] of the same compound?
Answer: 4.06 µM and 2.19 µM

Question: And the GI50 [16]?
Answer: 6.92 µM and 2.65 µM

Question: And the TGI [16]?
Answer: 14.6 µM and 10 µM

Question: And the GI50 [17]?
Answer: 1.14 µM

Question: What about the TGI [17] of the same compound?
Answer: 0.544 µM and 2.4 µM

Question: And the GI50 [18]?
Answer: 2.43 µM

Question: What about the TGI [18] of the same compound?
Answer: 3.17 µM and 9.05 µM

Question: What about the GI50 [19] of the same compound?
Answer: 2.11 µM

Question: What about the TGI [19] of the same compound?
Answer: 8.51 µM

Question: What about the GI50 [20] of the same compound?
Answer: 1.25 µM

Question: What about the TGI [20] of the same compound?
Answer: 1.98 µM and 3.23 µM

Question: And the GI50 [21]?
Answer: 1.96 µM

Question: And the TGI [21]?
Answer: 5.07 µM

Question: And the TGI [22]?
Answer: 4.77 µM

Question: And the GI50 [23]?
Answer: 0.259 µM

Question: What about the TGI [23] of the same compound?
Answer: 0.652 µM

Question: And the GI50 [24]?
Answer: 5.51 µM

Question: What about the TGI [24] of the same compound?
Answer: 21.2 µM and 22.2 µM

Question: What about the GI50 [25] of the same compound?
Answer: 1.59 µM

Question: What about the TGI [25] of the same compound?
Answer: 3.08 µM

Question: And the GI50 [26]?
Answer: 3.34 µM and 6.25 µM

Question: And the TGI [26]?
Answer: 8.88 µM and 22.4 µM

Question: What about the GI50 [27] of the same compound?
Answer: 6.05 µM and 1.16 µM

Question: And the TGI [27]?
Answer: 22.7 µM and 3.37 µM

Question: What about the GI50 [28] of the same compound?
Answer: 1.1 µM and 3.66 µM

Question: And the TGI [28]?
Answer: 8.18 µM and 13.9 µM

Question: What about the GI50 [29] of the same compound?
Answer: 2.14 µM

Question: And the TGI [29]?
Answer: 9.84 µM

Question: And the GI50 [30]?
Answer: 0.395 µM and 0.443 µM

Question: What about the TGI [30] of the same compound?
Answer: 1.23 µM and 1.88 µM

Question: What about the TGI [31] of the same compound?
Answer: 20.5 µM and 23.4 µM

Question: What about the GI50 [32] of the same compound?
Answer: 1.64 µM

Question: What about the TGI [32] of the same compound?
Answer: 3.86 µM

Question: And the TGI [33]?
Answer: 13.6 µM

Question: And the GI50 [34]?
Answer: 0.213 µM and 1.1 µM

Question: What about the TGI [34] of the same compound?
Answer: 0.761 µM and 3 µM

Question: What about the TGI [35] of the same compound?
Answer: 8.14 µM

Question: And the GI50 [36]?
Answer: 2.07 µM

Question: What about the TGI [36] of the same compound?
Answer: 6.48 µM

Question: What about the GI50 [37] of the same compound?
Answer: 0.941 µM and 1.77 µM

Question: And the TGI [37]?
Answer: 2.13 µM and 4.57 µM

Question: And the TGI [38]?
Answer: 12.1 µM

Question: What about the GI50 [39] of the same compound?
Answer: 2.64 µM

Question: What about the TGI [39] of the same compound?
Answer: 6.11 µM and 7.84 µM

Question: And the GI50 [40]?
Answer: 0.395 µM and 0.655 µM

Question: And the TGI [40]?
Answer: 1.04 µM and 1.97 µM

Question: What about the GI50 [41] of the same compound?
Answer: 1.28 µM

Question: And the TGI [41]?
Answer: 3.34 µM

Question: What about the TGI [42] of the same compound?
Answer: 6.92 µM

Question: And the TGI [43]?
Answer: 3.85 µM

Question: What about the TGI [44] of the same compound?
Answer: 3.29 µM

Question: What about the TGI [45] of the same compound?
Answer: 0.419 µM

Question: What about the GI50 [46] of the same compound?
Answer: 3.6 µM

Question: And the GI50 [47]?
Answer: 3.66 µM

Question: And the TGI [47]?
Answer: 1.61 µM and 10.7 µM

Question: And the GI50 [48]?
Answer: 0.783 µM and 3.08 µM

Question: What about the TGI [48] of the same compound?
Answer: 1.85 µM and 11.2 µM

Question: And the GI50 [49]?
Answer: 2.59 µM

Question: And the TGI [49]?
Answer: 9.78 µM and 6.24 µM

Question: What about the GI50 [50] of the same compound?
Answer: 11.4 µM

Question: And the TGI [51]?
Answer: 17.3 µM and 13.7 µM

Question: What about the GI50 [52] of the same compound?
Answer: 1.4 µM

Question: What about the TGI [52] of the same compound?
Answer: 4.64 µM

Question: And the GI50 [53]?
Answer: 0.734 µM and 2.57 µM

Question: What about the TGI [53] of the same compound?
Answer: 5.07 µM and 9.22 µM

Question: And the GI50 [54]?
Answer: 1.12 µM

Question: What about the TGI [54] of the same compound?
Answer: 1.07 µM and 2.52 µM

Question: And the GI50 [55]?
Answer: 1.28 µM and 2.37 µM

Question: What about the TGI [55] of the same compound?
Answer: 3.38 µM and 5.83 µM

Question: What about the GI50 [56] of the same compound?
Answer: 0.905 µM and 1.79 µM

Question: And the TGI [56]?
Answer: 3.22 µM and 10.7 µM

Question: What about the TGI [57] of the same compound?
Answer: 0.569 µM

Question: What about the TGI [58] of the same compound?
Answer: 11.6 µM

Question: And the GI50 [59]?
Answer: 1.06 µM and 1 µM

Question: What about the TGI [59] of the same compound?
Answer: 2.3 µM and 2.5 µM

Question: And the GI50 [60]?
Answer: 3.98 µM and 1.24 µM

Question: And the TGI [60]?
Answer: 8.77 µM and 6.43 µM

Question: What about the TGI [61] of the same compound?
Answer: 2.07 µM

Question: What about the GI50 [62] of the same compound?
Answer: 4.69 µM

Question: What about the TGI [62] of the same compound?
Answer: 17.1 µM

Question: And the GI50 [63]?
Answer: 2.82 µM

Question: What about the TGI [63] of the same compound?
Answer: 10.1 µM and 13.2 µM

Question: What about the GI50 [64] of the same compound?
Answer: 11.5 µM and 12.2 µM

Question: What about the TGI [64] of the same compound?
Answer: 20.6 µM and 24.6 µM

Question: What about the GI50 [65] of the same compound?
Answer: 3.86 µM

Question: What about the TGI [65] of the same compound?
Answer: 2.41 µM and 18.3 µM

Question: And the GI50 [66]?
Answer: 1.76 µM and 10.6 µM

Question: What about the TGI [66] of the same compound?
Answer: 4.64 µM and 40.4 µM
